Measurements taken from patent US20090105283A1, “3-HYDROQUINAZOLIN-4-ONE DERIVATIVES FOR USE AS STEAROYL CoA DESATURASE INHIBITORS” (priority 2007, published 2009).
pIC50: −log10 of the molar value.

Target: T1, stearoyl-CoA desaturase (SCD) (Rattus norvegicus, UniProt P07308)
T1 construct: The microsomes were quickly thawed and added to assay buffer so that a concentration of 0.4 mg/ml was achieved; from tissue
T1 sequence (P07308 1-358): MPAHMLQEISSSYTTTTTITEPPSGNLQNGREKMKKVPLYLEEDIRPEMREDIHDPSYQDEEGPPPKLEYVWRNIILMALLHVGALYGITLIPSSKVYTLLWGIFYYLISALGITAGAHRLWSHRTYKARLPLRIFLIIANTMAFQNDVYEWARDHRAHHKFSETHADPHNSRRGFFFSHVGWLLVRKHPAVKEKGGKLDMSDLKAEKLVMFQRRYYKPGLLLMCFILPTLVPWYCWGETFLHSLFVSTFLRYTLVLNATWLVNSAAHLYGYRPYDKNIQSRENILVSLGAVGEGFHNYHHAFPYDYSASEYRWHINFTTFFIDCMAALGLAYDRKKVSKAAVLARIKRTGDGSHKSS
Test: SCD assay with rat liver microsomes ([3H]stearoyl CoA, adapted from Talamo and Bloch)
Type: biochemical
Details: Table 2 (Example 21, procedures of Example 20); rat liver microsomes, [3H]stearoyl CoA substrate
Method in brief: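 Liver microsomes came from diet-induced male Sprague Dawley rats and were used at 0.2 mg/ml final. Assay buffer was Tris pH 7.2 with NADH, ATP, CoA, MgCl2 and 0.1% BSA. Compounds were preincubated 30 min, then reacted 45 min at room temperature with [3H]stearoyl-CoA; after TCA stop and Bio-Bead cleanup, supernatant radioactivity was counted by scintillation.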

O=C(Nc1ccc2ncn(Cc3cccc(COc4cc(Cl)ccc4Cl)c3)c(=O)c2c1)OCc1ccccc1 [compound 62, benzyl 3-(3-((2,5-dichlorophenoxy)methyl)benzyl)-4-oxo-3,4-dihydroquinazolin-6-ylcarbamate]
pIC50: 6.21

O=C(CO)Nc1ccc2c(=O)n(CCOc3ccccc3Cl)cnc2c1 [compound 63, N-(3-(2-(2-chlorophenoxy)ethyl)-4-oxo-3,4-dihydroquinazolin-7-yl)-2-hydroxyacetamide]
pIC50: 5.31

O=C(CO)Nc1ccc2ncn(CCCCCOc3cc(Cl)ccc3Cl)c(=O)c2c1 [compound 64, N-(3-(5-(2,5-dichlorophenoxy)pentyl)-4-oxo-3,4-dihydroquinazolin-6-yl)-2-hydroxyacetamide]
pIC50: 5.89

O=C(CO)Nc1ccc2ncn(CCCOc3cccc(Cl)c3Cl)c(=O)c2c1 [compound 65, N-(3-(3-(2,3-dichlorophenoxy)propyl)-4-oxo-3,4-dihydroquinazolin-6-yl)-2-hydroxyacetamide]
pIC50: 6.19

O=C(CO)Nc1ccc2ncn(CCCOc3cc(C(F)(F)F)ccc3Cl)c(=O)c2c1 [compound 66, N-(3-(3-(2-chloro-5-(trifluoromethyl)phenoxy)propyl)-4-oxo-3,4-dihydroquinazolin-6-yl)-2-hydroxyacetamide]
pIC50: 4.96

O=C(CO)Nc1ccc2ncn(CCNC(=O)c3cc(Cl)ccc3Cl)c(=O)c2c1 [compound 67, 2,5-dichloro-N-(2-(6-(2-hydroxyacetamido)-4-oxoquinazolin-3(4H)-yl)ethyl)benzamide]
pIC50: 4.68

O=C(CO)Nc1ccc2ncn(CCCOc3ccccc3)c(=O)c2c1 [compound 68, 2-hydroxy-N-(4-oxo-3-(3-phenoxypropyl)-3,4-dihydroquinazolin-6-yl)acetamide]
pIC50: 4.64

O=C(CO)Nc1ccc2ncn(CCNC(=O)c3ccccc3C(F)(F)F)c(=O)c2c1 [compound 69, N-(2-(6-(2-hydroxyacetamido)-4-oxoquinazolin-3(4H)-yl)ethyl)-2-(trifluoromethyl)benzamide]
pIC50: 5.28

O=C(CO)Nc1ccc2ncn(CCCOc3ccc(Cl)cc3)c(=O)c2c1 [compound 70, N-(3-(3-(4-chlorophenoxy)propyl)-4-oxo-3,4-dihydroquinazolin-6-yl)-2-hydroxyacetamide]
pIC50: 5.51

O=C(CO)Nc1ccc2ncn(CCNS(=O)(=O)c3cc(Cl)ccc3Cl)c(=O)c2c1 [compound 71, N-(3-(2-(2,5-dichlorophenylsulfonamido)ethyl)-4-oxo-3,4-dihydroquinazolin-6-yl)-2-hydroxyacetamide]
pIC50: 4.82

O=C(CO)Nc1ccc2ncn(CCCNS(=O)(=O)c3cc(Cl)ccc3Cl)c(=O)c2c1 [compound 72, N-(3-(3-(2,5-dichlorophenylsulfonamido)propyl)-4-oxo-3,4-dihydroquinazolin-6-yl)-2-hydroxyacetamide]
pIC50: 4.68

O=C(CO)Nc1ccc2ncn(CCCNS(=O)(=O)c3ccccc3C(F)(F)F)c(=O)c2c1 [compound 73, 2-hydroxy-N-(4-oxo-3-(3-(2-(trifluoromethyl)phenylsulfonamido)propyl)-3,4-dihydroquinazolin-6-yl)acetamide]
pIC50: 4.85

O=C(CO)Nc1ccc2ncn(CCOc3ccc(Cl)cc3)c(=O)c2c1 [compound 74, N-(3-(2-(4-chlorophenoxy)ethyl)-4-oxo-3,4-dihydroquinazolin-6-yl)-2-hydroxyacetamide]
pIC50: 4.77

O=C(CO)Nc1ccc2ncn(CCOc3cccc(Cl)c3)c(=O)c2c1 [compound 75, N-(3-(2-(3-chlorophenoxy)ethyl)-4-oxo-3,4-dihydroquinazolin-6-yl)-2-hydroxyacetamide]
pIC50: 5.82

Cc1ccccc1OCC(O)Cn1cnc2ccc(NC(=O)CO)cc2c1=O (stereo not shown) [compound 76, 2-hydroxy-N-(3-(2-hydroxy-3-(o-tolyloxy)propyl)-4-oxo-3,4-dihydroquinazolin-6-yl)acetamide]
pIC50: 5.40

O=C(Nc1cnc2ncn(Cc3ccc(Cl)c(Cl)c3)c(=O)c2c1)OCc1ccccc1 [compound 77, benzyl 3-(3,4-dichlorobenzyl)-4-oxo-3,4-dihydropyrido[2,3-d]pyrimidin-6-ylcarbamate]
pIC50: 6.44

O=C(CO)Nc1cnc2ncn(Cc3ccc(Cl)c(Cl)c3)c(=O)c2c1 [compound 78, N-(3-(3,4-dichlorobenzyl)-4-oxo-3,4-dihydropyrido[2,3-d]pyrimidin-6-yl)-2-hydroxyacetamide]
pIC50: 6.74

O=C(CO)Nc1cnc2ncn(Cc3ccc(Cl)cc3)c(=O)c2c1 [compound 79, N-(3-(4-chlorobenzyl)-4-oxo-3,4-dihydropyrido[2,3-d]pyrimidin-6-yl)-2-hydroxyacetamide]
pIC50: 5.77

O=C(Nc1cnc2ncn(Cc3ccc(Cl)cc3)c(=O)c2c1)OCc1ccccc1 [compound 80, benzyl 3-(4-chlorobenzyl)-4-oxo-3,4-dihydropyrido[2,3-d]pyrimidin-6-ylcarbamate]
pIC50: 7.11

O=C(NCCO)c1ccc2ncn(Cc3ccc(Cl)c(Cl)c3)c(=O)c2c1 [compound 81, 3-(3,4-dichlorobenzyl)-N-(2-hydroxyethyl)-4-oxo-3,4-dihydroquinazoline-6-carboxamide]
pIC50: 5.57

COCCNC(=O)c1ccc2ncn(Cc3ccc(Cl)c(Cl)c3)c(=O)c2c1 [compound 82, 3-(3,4-dichlorobenzyl)-N-(2-methoxyethyl)-4-oxo-3,4-dihydroquinazoline-6-carboxamide]
pIC50: 5.82

COCCNC(=O)c1ccc2c(=O)n(Cc3ccc(Cl)c(Cl)c3)cnc2c1 [compound 83, 3-(3,4-dichlorobenzyl)-N-(2-methoxyethyl)-4-oxo-3,4-dihydroquinazoline-7-carboxamide]
pIC50: 6.24

O=C(NCCO)c1ccc2c(=O)n(Cc3ccc(Cl)c(Cl)c3)cnc2c1 [compound 84, 3-(3,4-dichlorobenzyl)-N-(2-hydroxyethyl)-4-oxo-3,4-dihydroquinazoline-7-carboxamide]
pIC50: 6.20

O=C(NCc1ccccc1)c1ccc2c(=O)n(Cc3ccc(Cl)c(Cl)c3)cnc2c1 [compound 85, N-benzyl-3-(3,4-dichlorobenzyl)-4-oxo-3,4-dihydroquinazoline-7-carboxamide]
pIC50: 6.02

O=C(NCCCO)c1ccc2c(=O)n(Cc3ccc(Cl)c(Cl)c3)cnc2c1 [compound 86, 3-(3,4-dichlorobenzyl)-N-(3-hydroxypropyl)-4-oxo-3,4-dihydroquinazoline-7-carboxamide]
pIC50: 5.11

O=C(NCCOc1ccccc1)c1ccc2c(=O)n(Cc3ccc(Cl)c(Cl)c3)cnc2c1 [compound 87, 3-(3,4-dichlorobenzyl)-4-oxo-N-(2-phenoxyethyl)-3,4-dihydroquinazoline-7-carboxamide]
pIC50: 5.77

CNC(=O)c1ccc2c(=O)n(Cc3ccc(Cl)c(Cl)c3)cnc2c1 [compound 88, 3-(3,4-dichlorobenzyl)-N-methyl-4-oxo-3,4-dihydroquinazoline-7-carboxamide]
pIC50: 5.82

CNC(=O)c1ccc2c(=O)n(Cc3ccc(Cl)cc3)cnc2c1 [compound 89, 3-(4-chlorobenzyl)-N-methyl-4-oxo-3,4-dihydroquinazoline-7-carboxamide]
pIC50: 5.12

O=C(NCc1ccc(F)cc1)c1ccc2c(=O)n(Cc3ccc(Cl)cc3)cnc2c1 [compound 90, 3-(4-chlorobenzyl)-N-(4-fluorobenzyl)-4-oxo-3,4-dihydroquinazoline-7-carboxamide]
pIC50: 6.05

O=C(NCc1ccc(Cl)c(Cl)c1)c1ccc2c(=O)n(Cc3ccc(Cl)c(Cl)c3)cnc2c1 [compound 91, N,3-bis(3,4-dichlorobenzyl)-4-oxo-3,4-dihydroquinazoline-7-carboxamide]
pIC50: 5.77

O=C(NCCO)c1ccc2c(=O)n(Cc3ccc(Cl)cc3)cnc2c1 [compound 92, 3-(4-chlorobenzyl)-N-(2-hydroxyethyl)-4-oxo-3,4-dihydroquinazoline-7-carboxamide]
pIC50: 6.00

COCCNC(=O)c1ccc2c(=O)n(Cc3ccc(Cl)cc3)cnc2c1 [compound 93, 3-(4-chlorobenzyl)-N-(2-methoxyethyl)-4-oxo-3,4-dihydroquinazoline-7-carboxamide]
pIC50: 5.51

NCC(=O)Nc1ccc2ncn(Cc3ccc(Cl)c(Cl)c3)c(=O)c2c1 [compound 94, 2-amino-N-(3-(3,4-dichlorobenzyl)-4-oxo-3,4-dihydroquinazolin-6-yl)acetamide]
pIC50: 5.89

O=C(CCO)Nc1ccc2ncn(Cc3ccc(Cl)c(Cl)c3)c(=O)c2c1 [compound 95, N-(3-(3,4-dichlorobenzyl)-4-oxo-3,4-dihydroquinazolin-6-yl)-3-hydroxypropanamide]
pIC50: 4.92

O=C(Nc1ccc2ncn(Cc3ccc(Cl)c(Cl)c3)c(=O)c2c1)[C@H](O)Cc1ccccc1 [compound 96, (R)—N-(3-(3,4-dichlorobenzyl)-4-oxo-3,4-dihydroquinazolin-6-yl)-2-hydroxy-3-phenylpropanamide]
pIC50: 5.41

O=C(Nc1ccc2ncn(Cc3ccc(Cl)c(Cl)c3)c(=O)c2c1)[C@@H](O)Cc1ccccc1 [compound 97, (S)—N-(3-(3,4-dichlorobenzyl)-4-oxo-3,4-dihydroquinazolin-6-yl)-2-hydroxy-3-phenylpropanamide]
pIC50: 5.32

O=C(C[C@H](O)c1ccccc1)Nc1ccc2ncn(Cc3ccc(Cl)c(Cl)c3)c(=O)c2c1 [compound 98, (S)—N-(3-(3,4-dichlorobenzyl)-4-oxo-3,4-dihydroquinazolin-6-yl)-3-hydroxy-3-phenylpropanamide]
pIC50: 5.74
